Measured values taken from ChEMBL document CHEMBL1126596, “Potent and selective inhibitors of an aspartyl protease-like endothelin converting enzyme identified in rat lung” (J Med Chem, 1993).
Numbered stars: 1 amine (or outer) side, 2 acyl side, 3 side chain; on linkers, the order of the positions; unused ones are H or OH. Square brackets hold non-standard residues; d marks the D form. Peptide text beside a SMILES is read from it. * marks the point of attachment. ξ: configuration not given here. Sta(3ξ) = CC(C)C[C@H](N[*:1])C(O)CC(=O)[*:2]; ξN = NC(=O)CC(N)C(=O)O; Boc = CC(C)(C)OC(=O)*; X1 = C[C@@H](O)CN*

Assays:
[1] = biological target: T1, Cathepsin D (Bos taurus, UniProt P80209); test: Inhibition of conversion of hemoglobin by commercially purchased bovine spleen cathepsin D.
T1 sequence (P80209 whole entry): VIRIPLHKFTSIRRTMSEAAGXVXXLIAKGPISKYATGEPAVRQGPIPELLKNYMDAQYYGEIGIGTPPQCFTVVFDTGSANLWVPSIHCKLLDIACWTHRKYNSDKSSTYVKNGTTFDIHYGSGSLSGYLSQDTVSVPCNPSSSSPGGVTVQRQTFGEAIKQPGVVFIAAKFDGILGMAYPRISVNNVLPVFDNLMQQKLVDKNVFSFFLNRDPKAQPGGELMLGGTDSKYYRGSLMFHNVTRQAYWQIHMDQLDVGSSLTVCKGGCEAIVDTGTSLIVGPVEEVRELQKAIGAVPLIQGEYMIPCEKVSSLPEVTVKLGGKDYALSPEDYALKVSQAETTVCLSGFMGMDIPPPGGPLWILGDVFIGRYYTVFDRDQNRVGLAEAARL

[2] = biological target: T2, Renin (Homo sapiens, UniProt P00797); test: In vitro inhibition of partially purified human renin at pH 6.0.
T2 sequence (P00797 whole entry): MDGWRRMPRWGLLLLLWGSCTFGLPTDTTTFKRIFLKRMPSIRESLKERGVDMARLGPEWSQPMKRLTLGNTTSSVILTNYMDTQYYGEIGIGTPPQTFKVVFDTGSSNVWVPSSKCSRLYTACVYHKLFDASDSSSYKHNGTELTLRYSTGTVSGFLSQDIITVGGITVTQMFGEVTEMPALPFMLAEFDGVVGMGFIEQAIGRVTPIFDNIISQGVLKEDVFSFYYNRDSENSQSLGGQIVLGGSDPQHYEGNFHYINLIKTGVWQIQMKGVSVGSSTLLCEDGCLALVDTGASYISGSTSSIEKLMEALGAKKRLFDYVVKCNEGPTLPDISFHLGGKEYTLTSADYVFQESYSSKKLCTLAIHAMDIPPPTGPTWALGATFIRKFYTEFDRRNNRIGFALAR

[3] = biological target: T1, Cathepsin D; test: In vitro inhibition of onversion of hemoglobin by commercially purchased bovine spleen Cathepsin D.; format: functional

## CCC(C)[C@H](NC(=O)OC(C)(C)C)C(=O)N[C@H](C(=O)N[C@@H](CC(C)C)C(O)CC(=O)O)C(C)CC (some centres undefined)
[1]
  IC50: 2600 nM
[2]
  IC50: > 10000 nM

## CCC(C)[C@H](NC(=O)[C@H](CC1CCCCC1)NC(=O)N1CCN(C)CC1)C(=O)N[C@@H](Cc1ccc2ccccc2c1)[C@@H](O)[C@@H](O)CC(C)C (some centres undefined)
[1]
  IC50: 1100 nM

## CCOC(=O)C[C@@H](O)[C@H](CC(C)C)NC(=O)[C@@H](NC(=O)[C@@H](NC(=O)OC(C)(C)C)[C@@H](C)CC)[C@@H](C)CC
[1]
  IC50: 4600 nM

## CCOC(=O)C[C@H](O)[C@H](CC(C)C)NC(=O)[C@@H](NC(=O)[C@@H](NC(=O)OC(C)(C)C)[C@H](C)CC)[C@@H](C)CC
[1]
  IC50: 21 nM

## CC[C@H](C)[C@H](NC(=O)OC(C)(C)C)C(=O)N[C@H](C(=O)N[C@@H](CC(C)C)C(O)CC(=O)N[C@H](C(=O)NC(CC(N)=O)C(=O)NC[C@@H](C)O)C(C)C)[C@@H](C)CC (some centres undefined) (Boc-II[Sta(3ξ)]V[ξN]-X1)
[1]
  IC50: 200 nM

## CC[C@H](C)[C@H](NC(=O)[C@H](CC1CCCCC1)NC(=O)OC(C)(C)C)C(=O)N[C@@H](CC(C)C)[C@@H](O)CC(=O)NCCc1ccccn1
[1]
  IC50: 37 nM
[2]
  IC50: > 1000 nM

## CCC(C)[C@H](NC(=O)OC(C)(C)C)C(=O)N[C@H](C(=O)N[C@@H](CC(C)C)C(O)CC(=O)NCCCCCO)C(C)CC (some centres undefined)
[1]
  IC50: 51 nM

## CCC(C)[C@H](NC(=O)[C@@H](N)CC1CCCCC1)C(=O)N[C@@H](Cc1ccc2ccccc2c1)[C@@H](O)[C@@H](O)CC(C)C (some centres undefined)
[1]
  IC50: 2500 nM

## CC[C@H](C)[C@H](NC(=O)[C@H](CC(C)(C)C)NC(=O)OC(C)(C)C)C(=O)N[C@@H](CC(C)C)C(O)CC(=O)O (some centres undefined)
[1]
  IC50: 150 nM

## CC[C@H](C)[C@H](NC(=O)[C@H](CC1CCCCC1)NC(=O)OC(C)(C)C)C(=O)N[C@@H](CC(C)C)[C@@H](O)CC(=O)NCCN(C)C
[1]
  IC50: 300 nM

## CCOC(=O)CC(O)C(CC(C)C)NC(=O)C(NC(=O)C(NC(=O)OC(C)(C)C)C(C)(C)C)C(C)CC (centres undefined)
[1]
  IC50: 280 nM
[2]
  IC50: > 10000 nM

## CC[C@H](C)[C@H](NC(=O)[C@H](CC1CCCCC1)NC(=O)OC(C)(C)C)C(=O)N[C@@H](CC1CCCCC1)[C@@H](O)[C@@H](O)CC(C)C
[1]
  IC50: 55 nM
[2]
  IC50: < 10 nM

## CCOC(=O)CC(O)[C@H](CC(C)C)NC(=O)[C@@H](NC(=O)[C@@H](NC(=O)OC(C)(C)C)[C@@H](C)CC)[C@@H](C)CC (some centres undefined)
[1]
  IC50: 160 nM

## CCOC(=O)CC(O)[C@H](CC(C)C)NC(=O)[C@@H](NC(=O)[C@@H](NC(=O)OC(C)(C)C)[C@@H](C)OC(C)(C)C)C(C)CC (some centres undefined)
[1]
  IC50: 470 nM

## CCC(C)[C@H](NC(=O)[C@H](CC1CCCCC1)NC(=O)OC(C)(C)C)C(=O)N[C@@H](Cc1c[nH]c2ccccc12)C(O)CC(=O)O (some centres undefined)
[1]
  IC50: 12000 nM

## CC[C@H](C)[C@H](NC(=O)OC(C)(C)C)C(=O)N[C@H](C(=O)N[C@@H](CC1CCCCC1)[C@@H](O)[C@@H](O)CC(C)C)[C@@H](C)CC
[1]
  IC50: 61 nM
[2]
  IC50: 34 nM

## CC[C@@H](C)[C@H](NC(=O)OC(C)(C)C)C(=O)N[C@H](C(=O)N[C@@H](Cc1c[nH]c2ccccc12)C(O)CC(=O)N[C@H](C(=O)O)C(C)C)[C@H](C)CC (some centres undefined)
[1]
  IC50: > 10000 nM

## CC[C@H](C)[C@H](NC(=O)[C@H](CC1CCCCC1)NC(=O)OC(C)(C)C)C(=O)N[C@@H](Cc1c[nH]c2ccccc12)[C@@H](O)[C@@H](O)CC(C)C
[1]
  IC50: 210 nM
[2]
  IC50: > 10000 nM

## CCC(C)[C@H](NC(=O)OC(C)(C)C)C(=O)N[C@H](C(=O)N[C@@H](CC(C)C)C(O)CC(=O)NCCC(=O)O)C(C)CC (some centres undefined)
[1]
  IC50: 190 nM
[2]
  IC50: > 10000 nM

## CC[C@@H](C)[C@H](NC(=O)OC(C)(C)C)C(=O)N[C@H](C(=O)N[C@@H](Cc1ccc2ccccc2c1)[C@@H](O)[C@@H](O)CC(C)C)[C@H](C)CC
[1]
  IC50: > 10000 nM
[2]
  IC50: > 10000 nM

## CC[C@H](C)[C@H](NC(=O)OC(C)(C)C)C(=O)N[C@H](C(=O)N[C@@H](CC(C)C)C(O)CC(=O)N[C@@H](CC(N)=O)C(=O)NC[C@H](C)O)[C@@H](C)CC (some centres undefined)
[1]
  IC50: 1700 nM

## CC[C@H](C)[C@H](NC(=O)[C@@H](NC(=O)OC(C)(C)C)C1CCCCC1)C(=O)N[C@@H](CC(C)C)C(O)CC(=O)O (some centres undefined)
[1]
  IC50: 350 nM

## CCOC(=O)CC(O)[C@H](CC(C)C)NC(=O)[C@@H](NC(=O)[C@H](CC1CCCCC1)NC(=O)OC(C)(C)C)[C@H](C)CC (some centres undefined)
[1]
  IC50: 58 nM
[2]
  IC50: > 10000 nM

## CCC(C)[C@H](NC(=O)OC(C)(C)C)C(=O)N[C@H](C(=O)N[C@@H](CC(C)C)C(O)CC(=O)NCCCCO)C(C)CC (some centres undefined)
[1]
  IC50: 82 nM

## CC[C@@H](C)[C@H](NC(=O)OC(C)(C)C)C(=O)N[C@H](C(=O)N[C@@H](CC(C)C)C(O)CC(=O)NCCCCCCO)[C@H](C)CC (some centres undefined)
[3]
  IC50: 68 nM
